“And” between values parts separate entries of the source, which are not always exact repeats. Equal values may be shown once. Read-outs that look alike come from different tables or passages of the source.
Tests used:
[1] = test system: GABAA receptors (benzodiazepine binding site); test: PET with [11C]flumazenil (HRRT): GABAA receptor occupancy; type: in vivo, human; settings: for Occupancy (%) CER: cerebellum; for Occupancy (%) CER / Occupancy (%) OC / Occupancy (%) PUT / Occupancy (%) AMG: 1 h after drug administration; for Occupancy (%) OC: occipital cortex; for Occupancy (%) PUT: putamen; for Occupancy (%) AMG: amygdala
Procedure: Two separate open-label phase I PET studies were conducted in 2008–2009.
The initial study design included two sequential panels, with two subjects in each. The first panel was intended to obtain initial receptor occupancy values, to be used for dose selection in the second panel. […] The studies followed an adaptive design, i.e., doses and PET measurements were adjusted depending on the results of preceding measurements. […] To optimize quantification of the relationship between AZ6280 exposure and receptor occupancy, the number of subjects with the highest 40 mg dose was increased (Fig. 1).
The head of the subject was fixed using individual plaster helmet. A sterile physiological phosphate buffer (pH 7.4) solution containing [^11C]flumazenil was injected intravenously as a bolus during 2 s, immediately followed by flush with 10 ml saline. The injected radioactivity for [^11C]flumazenil was in the range of 330–350 MBq, (340 (9) MBq, mean, SD) in the study 1 and in the range of 317–363 MBq (335 (16) MBq) in the study 2. The specific radioactivity of the radioligand at time of injection ranged from 310 to 1465 GBq/μmol (730 (414) GBq/μmol, mean, SD) and from 464 to 1879 GBq/μmol (977 (424) GBq/μmol, mean, SD), for study 1 and study 2, respectively.
PET examinations were performed over 63 min (HRRT; Siemens/CTI). List mode data were reconstructed using the ordinary Poisson 3D ordered subset estimation maximization algorithm, with 10 iterations and 16 subsets including modeling of the point spread function (Varrone et al. [2009]) into a 4D PET image containing 33 consecutive time frames (9 × 10 s, 2 × 15 s, 3 × 20 s, 4 × 30 s, 4 × 60 s, 4 × 180 s, 7 × 360 s) with a 3D array of 256 × 256 × 207 voxels having a size of 1.22 × 1.22 × 1.22 mm.
The anatomical brain regions were delineated manually on the MR images using in-house image analysis software. The regions included cortical and striatal subregions, thalamus, cerebellum, limbic regions, pons, and whole brain. The following four regions were selected in the final analysis: The occipital cortex and cerebellum were chosen because of the highest GABAA receptor binding by [^11C]flumazenil and good imaging statistics and preferential distribution of α1/α2 receptor subtypes; the amygdala was chosen because of its role in the brain circuits involved in anxiety and putamen for preferential α1/α2/α3 versus α5 receptor subtypes (Lingford-Hughes et al. [2002]; Fatemi et al. [2013]; Waldvogel and Faull [2015]). For the pons, the ROI was drawn on horizontal projection on the six central slices. […] The concentration of radioactivity in each ROI, calculated for each sequential time frame and corrected for ^11C decay, was plotted versus time (TACs).
An index of neuronal GABAA receptor density or binding potential (BPND) was calculated using the simplified reference tissue model (Lammertsma and Hume [1996]) and pons as a reference region. The calculated receptor occupancy (%) was then correlated to drug exposure according to the following equation:1 Occupancy=Occmax×Cav,PET/Ki,plasma+Cav,PET
where Occmax is the maximal occupancy induced by drug, C av,PET is the total drug plasma concentration, and K i,plasma is the inhibition constant corresponding to the drug plasma concentration required for half-maximum receptor occupancy. Non-linear least squares curve fitting of the relationship between drug plasma concentration and receptor occupancy was performed using Matlab R2007b (http://de.mathworks.com). Regional data were fitted simultaneously to obtain a single estimate of K i,plasma and regionally different estimates of Occmax. Best fit estimate and confidence interval (95% CI) were obtained on the logarithmic scale.

[2] = Plasma pharmacokinetics after single oral doses in the PET studies; type: in vivo, human; settings: for C av,PET: average plasma concentration at time of PET
Procedure: Venous blood samples for determination of drug plasma concentrations were collected at approximately 15 min before [^11C]flumazenil injection and at 15 and 30 min and 3, 4, 6, 8, 10, 12, 16, 24, 36, and 48 h after drug administration, including three samples during PET measurement, at 1, 1.30, and 2 h after drug administration.
Calculations of the pharmacokinetic parameters included the maximum plasma concentration (C max), the time to the maximum plasma concentration (T max), and the average drug plasma concentration during the PET measurement (C av,PET) (division of the partial area corresponding to the start and end times of PET assessment, AUCPET, by the duration of the PET measurement). The pharmacokinetic calculations were performed using non-compartmental analysis using WinNonlin™, Pharsight Corporation.

[3] = Safety and tolerability in the PET studies; type: in vivo, human
Text: Safety and tolerability assessments included records of adverse events, vital signs (blood pressure, heart rate), Allen’s test, ECG, clinical chemistry, hematology assessments, and urinalysis.

[4] = target: human MT1 receptor (Homo sapiens, UniProt P48039); test: MT1 receptor GTPγS studies; type: biochemical
Chain of human MT1 receptor (P48039 whole entry): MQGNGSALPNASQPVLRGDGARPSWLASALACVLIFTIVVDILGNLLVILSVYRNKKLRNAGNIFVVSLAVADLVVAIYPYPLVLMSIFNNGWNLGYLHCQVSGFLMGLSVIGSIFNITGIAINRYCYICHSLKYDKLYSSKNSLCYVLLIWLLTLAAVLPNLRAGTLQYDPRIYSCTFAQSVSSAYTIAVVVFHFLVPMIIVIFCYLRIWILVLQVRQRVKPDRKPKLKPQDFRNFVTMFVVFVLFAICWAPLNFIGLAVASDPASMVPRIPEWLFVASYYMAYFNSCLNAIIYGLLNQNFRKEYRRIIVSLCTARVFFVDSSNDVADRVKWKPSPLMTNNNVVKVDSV

[5] = test system: approximately 160 different ligand binding assays; test: Battery of approximately 160 different ligand binding assays at 10 μM; settings: active = ≥50% inhibition with an IC50 <1µM
[6] = Brain exposure in animals; type: in vivo
[7] = VAS alertness-sedation, Modified Wilson Sedation Scale, DSST; ref NCT00681317 and NCT00681915; cited from earlier work
[8] = design: method as in Chen et al. 2014, 2015; settings: neurophysiological test battery; ref Chen et al. 2014, 2015; cited from earlier work
[9] = AZD7325 single oral dose 0.2 mg

Which “calculated GABAA receptor occupancy at the highest doses” value ([1]; 20–30 mg AZD7325, occipital cortex and cerebellum) does the source give for `CCCNC(=O)c1nnc2c(-c3c(F)cccc3OC)cccc2c1N` [AZD7325] here?
Its value is “over 80%”.

What about the “Occupancy (%) CER” value [1, 9] of the same molecule?
The value was −5% and 3%.

What about the “Occupancy (%) OC” value [1, 9] of the same molecule?
The value was −8% and 0.5%.

And the “Occupancy (%) CER” value ([1]; AZD7325 single oral dose 1 mg)?
The value was 43% and 25%.

And the “Occupancy (%) CER” value ([1]; AZD7325 single oral dose 2 mg)?
The value was 45% and 60%.

What about the “Occupancy (%) OC” value ([1]; AZD7325 single oral dose 2 mg) of the same molecule?
Its value is 24% and 42%.

What about the “Occupancy (%) PUT” value ([1]; AZD7325 single oral dose 2 mg) of the same molecule?
The value was 28% and 26%.

What about the “Occupancy (%) AMG” value ([1]; AZD7325 single oral dose 5 mg) of the same molecule?
Its value is 16% and 26%.

What about the “Occupancy (%) CER” value ([1]; AZD7325 single oral dose 5 mg) of the same molecule?
The value was 85% and 82%.

What about the “Occupancy (%) OC” value ([1]; AZD7325 single oral dose 5 mg) of the same molecule?
The value was 77% and 67%.

And the “Occupancy (%) PUT” value ([1]; AZD7325 single oral dose 5 mg)?
The value was 40% and 37%.

What about the “Occupancy (%) CER” value ([1]; AZD7325 single oral dose 20 mg) of the same molecule?
Its value is 77% and 95%.

What about the “Occupancy (%) OC” value ([1]; AZD7325 single oral dose 20 mg) of the same molecule?
Its value is 75% and 85%.

What about the “Occupancy (%) PUT” value ([1]; AZD7325 single oral dose 20 mg) of the same molecule?
Its value is 41% and 46%.

What about the “Occupancy (%) AMG” value ([1]; AZD7325 single oral dose 30 mg) of the same molecule?
The value was 37%.

What about the “Occupancy (%) CER” value ([1]; AZD7325 single oral dose 30 mg) of the same molecule?
The value was 89%.

What about the “Occupancy (%) OC” value ([1]; AZD7325 single oral dose 30 mg) of the same molecule?
The value was 82%.

What about the “Occupancy (%) PUT” value ([1]; AZD7325 single oral dose 30 mg) of the same molecule?
Its value is 52%.

What about the “C av,PET” value [2, 9] of the same molecule?
The value was 1.74 nM and 2.93 nM.

What about the Cmax ([2]; AZD7325 single oral dose 0.2 mg, individual subjects, read-out: C max) of the same molecule?
Its Cmax is 4.12 nM.

What about the T max ([2]; AZD7325 single oral dose 1 mg, individual subjects) of the same molecule?
The T max was 1.0 h.

What about the Cmax ([2]; AZD7325 single oral dose 1 mg, individual subjects, read-out: C max) of the same molecule?
The Cmax was 5.19 nM and 12.8 nM.

And the T max ([2]; AZD7325 single oral dose 2 mg, individual subjects)?
Its T max is 1.1 h.

What about the Cmax ([2]; AZD7325 single oral dose 2 mg, individual subjects, read-out: C max) of the same molecule?
The Cmax was 5.19 nM and 21.4 nM.

And the “C av,PET” value ([2]; AZD7325 single oral dose 5 mg)?
Its value is 46.28 nM and 39.22 nM.

And the T max ([2]; AZD7325 single oral dose 5 mg, individual subjects)?
The T max was 1.0 h.

What about the Cmax ([2]; AZD7325 single oral dose 5 mg, individual subjects, read-out: C max) of the same molecule?
The Cmax was 44 nM.

And the Cmax ([2]; AZD7325 single oral dose 20 mg, individual subjects, read-out: C max)?
Its Cmax is 302 nM.

And the “C av,PET” value ([2]; AZD7325 single oral dose 30 mg)?
The value was 265.25 nM.

What about the Cmax ([2]; human, plasma, oral, range over all doses and subjects, read-out: range for peak exposures, Cmax) of the same molecule?
Its Cmax is 0.81 to 109 ng/mL.

And the Tmax ([2]; human, plasma, po, 0.2 mg, AZD7325 single oral dose 0.2 mg, individual subjects)?
Its Tmax is 0.5 h.

And the Cmax ([2]; human, plasma, po, 0.2 mg, AZD7325 single oral dose 0.2 mg, individual subjects, read-out: C max)?
The Cmax was 2.29 nM.

And the Tmax ([2]; human, plasma, po, 1 mg, AZD7325 single oral dose 1 mg, individual subjects)?
The Tmax was 1.8 h.

What about the Tmax ([2]; human, plasma, po, 2 mg, AZD7325 single oral dose 2 mg, individual subjects) of the same molecule?
Its Tmax is 1.3 h.

And the Cmax ([2]; human, plasma, po, 5 mg, AZD7325 single oral dose 5 mg, individual subjects, read-out: C max)?
Its Cmax is 50.2 nM.

And the Tmax ([2]; human, plasma, po, 20 mg, AZD7325 single oral dose 20 mg, individual subjects)?
The Tmax was 3 h.

And the Cmax ([2]; human, plasma, po, 20 mg, AZD7325 single oral dose 20 mg, individual subjects, read-out: C max)?
The Cmax was 213 nM.

And the Tmax ([2]; human, plasma, po, 30 mg, AZD7325 single oral dose 30 mg, individual subject)?
Its Tmax is 2.2 h.

What about the Cmax ([2]; human, plasma, po, 30 mg, AZD7325 single oral dose 30 mg, individual subject, read-out: C max) of the same molecule?
Its Cmax is 308 nM.

What about the “receptor occupancy at the doses/exposure at which adverse events were reported” value ([3]; AZD7325 5, 20 and 30 mg, AZD6280 20 mg and above) of the same molecule?
The value was greater than 70%.

What about the “high receptor occupancy reached without obvious sedative effects” value ([3]; PET studies) of the same molecule?
Its value is greater than 70%.

And the “CNS-related AEs” value ([3]; reported by three subjects at 20 and 30 mg and in one subject both at 20 and at 5 mg)?
Its value is “dizziness, feeling hot, anhedonia, and hypoesthesia”.

And the Emax [4]?
Its Emax is 90%.

What about the “activity in the battery of ligand binding assays” value [5] of the same molecule?
The value was “only assays in which either compound was active were the melatonin Type 1 and Type 2 receptors”.

What about the brain exposure [6] of the same molecule?
Its brain exposure is “good brain exposure”.

What about the “relationship between dose and alertness or cognitive performance” value [7] of the same molecule?
The value was “no significant relationship”.

What about the “receptor occupancy up to which no cognitive or hypnotic side effects were observed” value [8] of the same molecule?
The value was “up to 80%”.

Reference: paper PMC5263201, “GABAA receptor occupancy by subtype selective GABAAα2,3 modulators: PET studies in humans” (Psychopharmacology, 2016)
